Results on 17 compounds are retold here after patent publication US11661437B2, “Steroid derivative regulators, method for preparing the same, and uses thereof” (priority 2018, dated 2023).

For orientation: IC50 means the concentration that gives 50% inhibition.

For the experiment, the system named is GABA-A receptor. Kind of experiment: 35S-TBPS binding assay on rat cerebral cortex cell membrane. Also on record: species or system Sprague-Dawley rat. The settings on record: 2 nM 35S-TBPS, GABA added, read-out: 35S-TBPS bindng test, IC50 on inhibiting the TBPS binding activity. The method, then: 1.2.1 Extraction of Cerebral Cortex Cell Membrane:
1. The cerebral cortex of male Sprague-Dawley rat was isolated.
2. A pre-chilled 0.32 M sucrose solution (one tablet of protease inhibitor was added per 100 ml) was added to the cerebral cortex (the volume of sucrose solution was 10 times the volume of the cerebral cortex). The mixture was crushed with a 50 ml glass tissue homogenizer in batches and mixed well.
3. The mixture was centrifuged at 1500 g, 4° C. for 10 minutes, and the supernatant was collected.
4. The mixture was centrifuged at 20000 g, 4° C. for 30 minutes, and the supernatant was discarded.
5. The precipitate was resuspended with the pre-chilled phosphate buffer saline (PBS) (one tablet of protease inhibitor was added per 100 ml). An average of 4 ml of PBS was added per rat, and the mixture was mixed well with a glass tissue homogenizer.
6. The mixture was centrifuged at 10000 g, 4° C. for 10 minutes, and the supernatant was discarded.
7. Steps 5 and 6 were repeated three times.
8. Finally, the precipitate was resuspended with 4 volumes of PBS. The resulting solution was dispensed, frozen in liquid nitrogen, and stored at −80° C.
9. The protein concentration was measured by the bicinchoninic acid (BCA) method.
1.2.2 ^35S-TBPS Binding Assay
1. 230 μL of PBS was added to each well of a well plate with 1.1 ml volume.
2. 60 μL of the cerebral cortex cell membrane (5 μg/μL) solution was added to each well, and the mixture was mixed well.
3. The test compound (3 μL per well) was added, and the plate was incubated at 25° C. for 5 minutes. The DMSO concentration was 1%. The initial compound concentration was 1 NM, and a 3-fold dilution in gradient was carried out to obtain a total of 8 gradients and 2 replicates. 1% DMSO was used as a negative control, and 10 μM P026-2 was used as a positive control.
4. GABA was added at a final concentration of […], and incubated at 25° C. for 5 minutes. 1 mM GABA solution was formulated, and 1.5 μL of the solution was added to each well.
5. ^35S-TBPS was added at a final concentration of 2 nM. The concentration of isotope mother solution was 9.7 μM. After dilution with PBS for 100 times, 6 μL of the diluted isotope solution was added to each well.
6. The plate was incubated at 4° C. for 20 hours.
7. The FilterMate GF/C plate was pre-treated with 0.5% PEI, and incubated at 4° C. for 1 hour.
8. The FilterMate GF/C plate was washed with Universal Harvester twice, 50 ml PBS each time.
9. The reaction solution was transferred to the GF/C plate, and each well was washed 4 times with 900 μL PBS.
10. The washed GF/C plate was placed at 55° C. and dried for 10 minutes.
11. 40 μL of scintillation solution was added to each well, and the CPM value was read with TopCount.
1.2.3 Experimental Data Processing Method:
In the experiment, the CPM (counts per minute) value was read with TopCount. According to the readings of the High control (DMSO) and the Low control (10 μM of the positive compound) experimental groups, the % inhibition was calculated based on the following formula: % Inhibition=100×(CPMHigh control−CPMSample)/(CPMHigh control−CPMLow control)
The IC50 of the compound was calculated according to the following 4-parameter nonlinear logic formula: Y=Bottom+(Top−Bottom)/(1+10^((Log IC50−X)*Hill Slope)),
The effect of the compound of the present invention on the TBPS binding activity was determined by the above test, and the measured IC50 values are shown in Table 1.
For the compound `C[C@@]1(O)CC[C@@]2(F)[C@H](CC[C@H]3[C@@H]4CC[C@H](C(=O)Cn5ccc(C#N)n5)[C@@]4(C)CC[C@@H]32)C1` [Example 3, 1-(2-((3R,5R,8S,9S,10R,13S,14S,17S)-10-Fluoro-3-hydroxy-3,13-dimethylhexadecahydro-1H-cyclopenta[a]phenanthren-17-yl)-2-oxoethyl)-1H-pyrazole-3-carbonitrile], the 50% inhibitory concentration (IC50) stood at 0.0109 µM.

Regarding `C[C@@]1(O)CC[C@@]2(F)[C@H](CC[C@H]3[C@@H]4CC[C@H](C(=O)Cn5nccn5)[C@@]4(C)CC[C@@H]32)C1` [Example 10, 1-((3R,5R,8S,9S,10R,13S,14S,17S)-10-Fluoro-3-hydroxy-3,13-dimethylhexadecahydro-1H-cyclopenta[a]phenanthren-17-yl)-2-(2H-1,2,3-triazol-2-yl)ethan-1-one], the IC50 came out at 0.0053 µM.

In the case of `Cc1cnn(CC(=O)[C@H]2CC[C@H]3[C@@H]4CC[C@@H]5C[C@](C)(O)CC[C@]5(F)[C@H]4CC[C@]23C)c1` [Example 11, 1-((3R,5R,8S,9S,10R,13S,14S,17S)-10-Fluoro-3-hydroxy-3,13-dimethylhexadecahydro-1H-cyclopenta[a]phenanthren-17-yl)-2-(4-methyl-1H-pyrazol-1-yl)ethan-1-one], the half-inhibitory concentration (IC50) stood at 0.0413 µM. To `C[C@@]1(O)CC[C@@]2(F)[C@H](CC[C@H]3[C@@H]4CC[C@H](C(=O)Cn5nc6ccccc6n5)[C@@]4(C)CC[C@@H]32)C1` [Example 14, 2-(2H-Benzo[d][1,2,3]triazol-2-yl)-1-((3R,5R,8S,9S,10R,13S,14S,17S)-10-fluoro-3-hydroxy-3,13-dimethylhexadecahydro-1H-cyclopenta[a]phenanthren-17-yl)ethan-1-one] belongs 0.0104 µM. For the compound `C[C@@]1(O)CC[C@@]2(F)[C@H](CC[C@H]3[C@@H]4CC[C@H](C(=O)Cn5nnc6ccccc65)[C@@]4(C)CC[C@@H]32)C1` [Example 15, 2-(1H-Benzo[d][1,2,3]triazol-1-yl)-1-((3R,5R,8S,9S,10R,13S,14S,17S)-10-fluoro-3-hydroxy-3,13-dimethylhexadecahydro-1H-cyclopenta[a]phenanthren-17-yl)ethan-1-one], the IC50 was 0.0087 µM. With `C[C@@]1(O)CC[C@@]2(F)[C@H](CC[C@H]3[C@@H]4CC[C@H](C(=O)Cn5cc6ccncc6n5)[C@@]4(C)CC[C@@H]32)C1` [Example 16, 1-((3R,5R,8S,9S,10R,13S,14S,17S)-10-Fluoro-3-hydroxy-3,13-dimethylhexadecahydro-1H-cyclopenta[a]phenanthren-17-yl)-2-(2H-pyrazolo[3,4-c]pyridin-2-yl)ethan-1-one], the half-maximal inhibitory concentration (IC50) was determined as 0.04 µM.

As to `C[C@@]1(O)CC[C@@]2(F)[C@H](CC[C@H]3[C@@H]4CC[C@H](C(=O)Cn5nnc6ccc(F)cc65)[C@@]4(C)CC[C@@H]32)C1` [Example 19, 2-(6-Fluoro-1H-benzo[d][1,2,3]triazol-1-yl)-1-((3R,5R,8S,9S,10R,13S,14S,17S)-10-fluoro-3-hydroxy-3,13-dimethylhexadecahydro-1H-cyclopenta[a]phenanthren-17-yl)ethan-1-one], the half-inhibitory concentration (IC50) came to 0.0152 µM.

Regarding `C[C@@]1(O)CC[C@@]2(F)[C@H](CC[C@H]3[C@@H]4CC[C@H](C(=O)Cn5cc6c(n5)CCCC6)[C@@]4(C)CC[C@@H]32)C1` [Example 21, 1-((3R,5R,8S,9S,10R,13S,14S,17S)-10-Fluoro-3-hydroxy-3,13-dimethylhexadecahydro-1H-cyclopenta[a]phenanthren-17-yl)-2-(4,5,6,7-tetrahydro-2H-indazol-2-yl)ethan-1-one], the IC50 was 0.0361 µM. In the case of `C[C@@]1(O)CC[C@@]2(F)[C@H](CC[C@H]3[C@@H]4CC[C@H](C(=O)CNc5ccccc5F)[C@@]4(C)CC[C@@H]32)C1` [Example 24, 1-((3R,5R,8S,9S,10R,13S,14S,17S)-10-Fluoro-3-hydroxy-3,13-dimethylhexadecahydro-1H-cyclopenta[a]phenanthren-17-yl)-2-((2-fluorophenyl)amino)ethan-1-one] it was 0.0102 µM; in that of `C[C@@]1(O)CC[C@@]2(F)[C@H](CC[C@H]3[C@@H]4CC[C@H](C(=O)CNc5cccc(F)c5)[C@@]4(C)CC[C@@H]32)C1` [Example 25, 1-((3R,5R,8S,9S,10R,13S,14S,17S)-10-Fluoro-3-hydroxy-3,13-dimethylhexadecahydro-1H-cyclopenta[a]phenanthren-17-yl)-2-((3-fluorophenyl)amino)ethan-1-one], 0.0067 µM; in that of `C[C@@]1(O)CC[C@@]2(F)[C@H](CC[C@H]3[C@@H]4CC[C@H](C(=O)CNc5ccc(F)cc5C#N)[C@@]4(C)CC[C@@H]32)C1` [Example 27, 5-Fluoro-2-((2-((3R,5R,8S,9S,10R,13S,14S,17S)-10-fluoro-3-hydroxy-3,13-dimethylhexadecahydro-1H-cyclopenta[a]phenanthren-17-yl)-2-oxoethyl)amino)benzonitrile], 0.0075 µM.

With `C[C@@]1(O)CC[C@@]2(F)[C@H](CC[C@H]3[C@@H]4CC[C@H](C(=O)COc5ccc(F)cc5C#N)[C@@]4(C)CC[C@@H]32)C1` [Example 30, 5-Fluoro-2-(2-((3R,5R,8S,9S,10R,13S,14S,17S)-10-fluoro-3-hydroxy-3,13-dimethylhexadecahydro-1H-cyclopenta[a]phenanthren-17-yl)-2-oxoethoxy)benzonitrile], the concentration for half-maximal inhibition (IC50) came to 0.0072 µM. Take `C[C@@]1(O)CC[C@@]2(F)[C@H](CC[C@H]3[C@@H]4CC[C@H](C(=O)COc5ccc(C#N)cc5F)[C@@]4(C)CC[C@@H]32)C1` [Example 31, 3-Fluoro-4-(2-((3R,5R,8S,9S,10R,13S,14S,17S)-10-fluoro-3-hydroxy-3,13-dimethylhexadecahydro-1H-cyclopenta[a]phenanthren-17-yl)-2-oxoethoxy)benzonitrile]: the IC50 was 0.0111 µM.

`C[C@@]1(O)CC[C@@]2(F)[C@H](CC[C@H]3[C@@H]4CC[C@H](C(=O)COc5ccc(C#N)cc5)[C@@]4(C)CC[C@@H]32)C1` [Example 33, 4-(2-((3R,5R,8S,9S,10R,13S,14S,17S)-10-Fluoro-3-hydroxy-3,13-dimethylhexadecahydro-1H-cyclopenta[a]phenanthren-17-yl)-2-oxoethoxy)benzonitrile]: the concentration for half-maximal inhibition (IC50) worked out at 0.0138 µM.

Regarding `C[C@@]1(O)CC[C@@]2(F)[C@H](CC[C@H]3[C@@H]4CC[C@H](C(=O)COc5cc(C#N)ccc5F)[C@@]4(C)CC[C@@H]32)C1` [Example 34, 4-Fluoro-3-(2-((3R,5R,8S,9S,10R,13S,14S,17S)-10-fluoro-3-hydroxy-3,13-dimethylhexadecahydro-1H-cyclopenta[a]phenanthren-17-yl)-2-oxoethoxy)benzonitrile], the IC50 was 0.0093 µM. To `C[C@@]1(O)CC[C@@]2(F)[C@H](CC[C@H]3[C@@H]4CC[C@H](C(=O)COc5ccc(C#N)c(F)c5)[C@@]4(C)CC[C@@H]32)C1` [Example 35, 2-Fluoro-4-(2-((3R,5R,8S,9S,10R,13S,14S,17S)-10-fluoro-3-hydroxy-3,13-dimethylhexadecahydro-1H-cyclopenta[a]phenanthren-17-yl)-2-oxoethoxy)benzonitrile] belongs 0.0151 µM; to `C[C@@]1(O)CC[C@@]2(F)[C@H](CC[C@H]3[C@@H]4CC[C@H](C(=O)COc5ccc(F)cc5F)[C@@]4(C)CC[C@@H]32)C1` [Example 36, 2-(2,4-Difluorophenoxy)-1-((3R,5R,8S,9S,10R,13S,14S,17S)-10-fluoro-3-hydroxy-3,13-dimethylhexadecahydro-1H-cyclopenta[a]phenanthren-17-yl)ethan-1-one], 0.0137 µM.
